Measurements taken from patent US11591331B2, “PARP1 inhibitors and uses thereof” (Xinthera, Inc., priority 2021, dated 2023).

Legend:
Experiment in all cases: Cell growth inhibition assay (CellTiter-Glo cell viability, 7 days)
Type in all cases: cell-based
DLD-1 BRCA2(−/−) = settings: Homo sapiens, 168 h, DLD-1 BRCA2(-/-) cells
[1] = test system: MDA-MB-436 (mutated BRCA1) cell lines; settings: Homo sapiens, 168 h, MDA-MB-436 cells
DLD-1 parental = settings: Homo sapiens, 168 h, DLD-1 parental cells
Source text: Example A: Cell Growth Inhibition Assay
The objective of this study is to evaluate the effect of invention compounds on cell proliferation through the cell viability assay in DLD-1 BRCA2(−/−) and parental isogenic pair and MDA-MB-436 (mutated BRCA1) cell lines. The CellTiter-Glo (CTG) based cell viability assay is designed to determine the number of viable cells in the culture because of compound effect, by quantifying ATP, which indicates the presence of metabolically active cells.
DLD-1 BRCA2(−/−) and parental isogenic pair were cultured in RPMI 1640 supplemented with 10% fetal bovine serum (FBS), and MDA-MB-436 cells were cultured in DMEM supplemented with 10% FBS. Both are culture at 37° C. with 5% CO2. Invention compounds were distributed to the 384 well plate (Corning, 3764) using Echo acoustic liquid handler to form a 1:3 serially diluted final concentration with top dose of 10 or 30 μM. The cells were seeded into the plate in the density of 50 cells/well (DLD-1 parental), 200 cells/well (DLD-1 BRCA2−/−), or 500 cells/well (MDA-MB-436). After a short spun, the cells were cultured in a well moisturized incubator at 37° C. with 5% CO2 for 7 days without disturbance. The cell viability was measured by CellTiter Glo 2.0 assay kit (Promega, G9243), and growth inhibition rate was calculated and plotted against final compound concentration, and the data were fitted in Xfit to generate IC50.

| EC50 (DLD-1 BRCA2(−/−)) [µM] | EC50 [1] [µM] | Compound | EC50 (DLD-1 parental) [µM] |
| --- | --- | --- | --- |
| 0.0041 | 0.001 | CCc1cc2ncc(CN3CCN(c4ccc(C(=O)NC)nc4)[C@@H](C)C3)cc2[nH]c1=O (racemic) [Example 27] | 32 |
| 0.022 | – | CCc1cc2ncc(CN3CCN(c4ccc(C(=O)NC)nc4)C[C@H]3C)cc2[nH]c1=O (racemic) [Example 161] | > 10 |
| 0.0032 | 0.0015 | CCc1cc2ncc(CN3CCN(c4ccc(C(=O)NC)nc4)[C@H]4C[C@H]43)cc2[nH]c1=O (single isomer, unassigned) [Example 3B] | 29 |
| 0.23 | 0.024 | CCc1cc2ncc(CN3CCN(c4ccc(C(=O)NC)nc4)[C@@H]4C[C@@H]43)cc2[nH]c1=O (stereo in doubt) [Example 3A, rel-5-[(1R,6S)-5-[(7-ethyl-6-oxo-5H-1,5-naphthyridin-3-yl)methyl]-2,5-diazabicyclo[4.1.0]heptan-2-yl]-N-methylpyridine-2-carboxamide] | > 30 |
| 0.0032 | 0.0008 | CCc1cc2ncc(CN3CCN(c4ccc(C(=O)NC)nc4)[C@H]4C[C@H]43)cc2[nH]c1=O (stereo in doubt) [Example 28] | 33 |
| 0.0016 | 0.00069 | CCc1cc2ncc(CN3CCN(c4ccc(C(=O)NC)nc4C#N)[C@H](C)C3)cc2[nH]c1=O [Example 4, 6-cyano-5-[(2R)-4-[(7-ethyl-6-oxo-5H-1,5-naphthyridin-3-yl)methyl]-2-methylpiperazin-1-yl]-N-methylpyridine-2-carboxamide] | > 30 |
| 0.0028 | 0.0017 | CCc1cc2ncc(CN3CCN(c4ccc(C(=O)NC)nc4C4CC4)CC3)cc2[nH]c1=O [Example 6, 6-cyclopropyl-5-(4-((7-ethyl-6-oxo-5,6-dihydro-1,5-naphthyridin-3-yl)methyl)piperazin-1-yl)-N-methylpicolinamide] | 11 |
| 0.0031 | 0.0013 | CCc1cc2ncc(CN3CCN(c4ccc(C(=O)NC)c(F)c4)CC3)cc2[nH]c1=O [Example 7, 4-{4-[(7-ethyl-6-oxo-5H-1,5-naphthyridin-3-yl)methyl]piperazin-1-yl}-2-fluoro-N-methylbenzamide] | 300 |
| 0.0035 | 0.0015 | CCc1cc2ccc(CN3CCN(c4ccc(C#N)cn4)CC3)cc2[nH]c1=O [Example 9, 6-{4-[(3-ethyl-2-oxo-1H-quinolin-7-yl)methyl]piperazin-1-yl}pyridine-3-carbonitrile] | 13 |
| 0.0026 | 0.00068 | CNC(=O)c1ccc(N2CCN(Cc3ccc4c5c(c(=O)[nH]c4c3)CCC5)CC2)cn1 [Example 10, N-methyl-5-[4-({4-oxo-1H,2H,3H,5H-cyclopenta[c]quinolin-7-yl}methyl)piperazin-1-yl]pyridine-2-carboxamide] | 1400 |
| 0.0028 | 0.0011 | CNC(=O)c1ccc(N2CCN(Cc3ccc4c(c3)[nH]c(=O)c3ccoc34)CC2)cn1 [Example 11, N-methyl-5-[4-({4-oxo-5H-furo[3,2-c]quinolin-7-yl}methyl)piperazin-1-yl]pyridine-2-carboxamide] | 440 |
| 0.0011 | 0.00062 | CCc1cc2ncc(CN3CCN(c4ccc(C(=O)NC5CC5)nc4)CC3)cc2[nH]c1=O [Example 12, N-cyclopropyl-5-{4-[(7-ethyl-6-oxo-5H-1,5-naphthyridin-3-yl)methyl]piperazin-1-yl}pyridine-2-carboxamide] | 51 |
| 0.0048 | 0.0042 | CCc1cc2ncc(CN3CCN(c4cccnc4C#N)CC3)cc2[nH]c1=O [Example 128, 3-{4-[(7-ethyl-6-oxo-5H-1,5-naphthyridin-3-yl)methyl]piperazin-1-yl}pyridine-2-carbonitrile] | – |
| 0.015 | 0.007 | N#Cc1ncccc1N1CCN(Cc2cnc3cc(C4CC4)c(=O)[nH]c3c2)CC1 [Example 129] | – |
| 0.0033 | 0.0023 | CCc1cc2ncc(CN3CCN(c4ccccc4C#N)CC3)cc2[nH]c1=O [Example 130] | – |
| 0.011 | 0.0062 | Cc1cc2ncc(CN3CCN(c4cccnc4C#N)CC3)cc2[nH]c1=O [Example 131] | – |
| 0.0067 | 0.0044 | CCc1cc2ncc(CN3CCN(c4cc(F)ccc4C#N)CC3)cc2[nH]c1=O [Example 132] | – |
| 0.001 | 0.00087 | CNC(=O)c1ccc(N2CCN(Cc3cnc4c(C)c(C(F)F)c(=O)[nH]c4c3)CC2)cn1 [Example 133] | – |
| 0.0024 | 0.0014 | CCc1cc2ncc(CN3CCN(c4ccc(C(=O)NC5CC5)c(F)c4)CC3)cc2[nH]c1=O [Example 134] | – |
| 0.015 | 0.024 | C#Cc1cc2ncc(CN3CCN(c4ccc(C(=O)NC)nc4)CC3)cc2[nH]c1=O [Example 135] | – |

| EC50 (DLD-1 BRCA2(−/−)) [µM] | EC50 [1] [µM] | Compound | EC50 (DLD-1 parental) [µM] |
| --- | --- | --- | --- |
| 0.002 | 0.00093 | Cc1cnc(N2CCN(Cc3cnc4cc(C5CC5)c(=O)[nH]c4c3)CC2)n1C [Example 136] | – |
| 0.0021 | 0.0013 | CCNC(=O)c1ccc(N2CCN(Cc3cnc4cc(C5CC5)c(=O)[nH]c4c3)CC2)cn1 [Example 137] | – |
| 0.0027 | 0.0021 | CNC(=O)c1ccc(N2CCN(Cc3cnc4cc(Cl)c(=O)[nH]c4c3)CC2)cn1 [Example 138, 5-{4-[(7-chloro-6-oxo-5H-1,5-naphthyridin-3-yl)methyl]piperazin-1-yl}-N-methylpyridine-2-carboxamide] | – |
| 0.0015 | 0.00077 | CCc1cc2ncc(CN3CCN(c4ccc(C(=O)NC5CC5)nc4C#N)CC3)cc2[nH]c1=O [Example 139] | – |
| 0.0043 | 0.0058 | CNC(=O)c1ccc(N2CCN(Cc3cnc4cc(C5CC(F)(F)C5)c(=O)[nH]c4c3)CC2)cn1 [Example 140] | – |
| 0.0064 | 0.0041 | CCc1cc2nc(C#N)c(CN3CCN(c4ccc(C(=O)NC)nc4)CC3)cc2[nH]c1=O [Example 141] | – |
| 0.0087 | 0.004 | O=C(NC1CC1)c1ccc(N2CCN(Cc3cnc4c(c3)[nH]c(=O)c3ccoc34)CC2)cn1 [Example 142] | – |
| 0.0041 | 0.002 | CCc1cc2c(OC)nc(CN3CCN(c4ccc(C(=O)NC)nc4)CC3)cc2[nH]c1=O [Example 144] | – |
| 0.0019 | 0.0011 | CCc1cc2ncc(CN3CCN(c4ccc(C(=O)NC)c(F)c4C#N)CC3)cc2[nH]c1=O [Example 145] | – |
| 0.0029 | 0.0013 | O=C(NC1CC1)c1ccc(N2CCN(Cc3cnc4cc(Cl)c(=O)[nH]c4c3)CC2)cn1 [Example 147] | – |
| 0.002 | 0.0015 | CNC(=O)c1ccc(N2CCN(Cc3cnc4c(C)c(Cl)c(=O)[nH]c4c3)CC2)cn1 [Example 148, 5-{4-[(7-chloro-8-methyl-6-oxo-5H-1,5-naphthyridin-3-yl)methyl]piperazin-1-yl}-N-methylpyridine-2-carboxamide] | – |
| 0.017 | 0.0094 | CNC(=O)c1ccc(N2CCN(Cc3cnc4cc(N5CCC5)c(=O)[nH]c4c3)CC2)cn1 [Example 149] | – |
| 0.018 | 0.009 | CCc1cc2ccc(CN3CCN(c4ccc(C(=O)NC)nc4F)CC3)nc2[nH]c1=O [Example 150] | – |
| 0.016 | 0.028 | CNC(=O)c1ccc(N2CCN(Cc3cnc4c(C(F)F)c(C)c(=O)[nH]c4c3)CC2)cn1 [Example 151] | – |
| 0.0011 | 0.00051 | O=C(NC1CC1)c1ccc(N2CCN(Cc3cnc4cc(Cl)c(=O)[nH]c4c3)CC2)c(F)n1 [Example 152] | – |
| 0.003 | 0.0016 | Cc1c(Cl)c(=O)[nH]c2cc(CN3CCN(c4ccc(C(=O)NC5CC5)nc4)CC3)cnc12 [Example 154] | – |
| 0.00068 | 0.00039 | CNC(=O)c1ccc(N2CCN(Cc3cnc4c(C)c(Cl)c(=O)[nH]c4c3)CC2)c(F)n1 [Example 156] | – |
| 0.061 | 0.041 | N#CC12CC(N3CCN(Cc4cnc5cc(Cl)c(=O)[nH]c5c4)CC3)(C1)C2 [Example 157] | – |
| 0.0021 | 0.001 | O=C(NC1CC1)c1ccc(N2CCN(Cc3cnc4cc(C5CC5)c(=O)[nH]c4c3)CC2)c(F)n1 [Example 158] | – |
| 0.0017 | 0.00072 | CNC(=O)c1ccc(N2CCN(Cc3cnc4c(Cl)c(Br)c(=O)[nH]c4c3)CC2)cn1 [Example 159] | – |

| Compound | EC50 (DLD-1 BRCA2(−/−)) [µM] | EC50 [1] [µM] | EC50 (DLD-1 parental) [µM] |
| --- | --- | --- | --- |
| CCc1cc2ncc(CN3CC=C(c4ccc(C(=O)NC)nc4)CC3)cc2[nH]c1=O [Example 8, 1′-((7-ethyl-6-oxo-5,6-dihydro-1,5-naphthyridin-3-yl)methyl)-N-methyl-1′,2′,3′,6′-tetrahydro-[3,4′-bipyridine]-6-carboxamide] | 0.001 | 0.00025 | 89 |
| CNC(=O)c1ccc(C2=CCN(Cc3cnc4cc(Cl)c(=O)[nH]c4c3)CC2)c(F)n1 [Example 153] | 0.00095 | 0.00074 | – |
| CNC(=O)c1ccc(C2=CCN(Cc3cnc4cc(Cl)c(=O)[nH]c4c3)CC2)cn1 [Example 160] | 0.0026 | 0.0021 | – |
